Laboratory results published in patent US8623857B2, “N-phenyl imidazole carboxamide inhibitors of 3-phosphoinositide-dependent protein kinase-1” (Merck Sharp & Dohme Corp., priority 2010, dated 2014).

Columns and labels:
PDK-1 = target: T1, PDK-1 (Homo sapiens, UniProt O15530); conditions: in vitro; cited from earlier work
T1 sequence (O15530 1-556): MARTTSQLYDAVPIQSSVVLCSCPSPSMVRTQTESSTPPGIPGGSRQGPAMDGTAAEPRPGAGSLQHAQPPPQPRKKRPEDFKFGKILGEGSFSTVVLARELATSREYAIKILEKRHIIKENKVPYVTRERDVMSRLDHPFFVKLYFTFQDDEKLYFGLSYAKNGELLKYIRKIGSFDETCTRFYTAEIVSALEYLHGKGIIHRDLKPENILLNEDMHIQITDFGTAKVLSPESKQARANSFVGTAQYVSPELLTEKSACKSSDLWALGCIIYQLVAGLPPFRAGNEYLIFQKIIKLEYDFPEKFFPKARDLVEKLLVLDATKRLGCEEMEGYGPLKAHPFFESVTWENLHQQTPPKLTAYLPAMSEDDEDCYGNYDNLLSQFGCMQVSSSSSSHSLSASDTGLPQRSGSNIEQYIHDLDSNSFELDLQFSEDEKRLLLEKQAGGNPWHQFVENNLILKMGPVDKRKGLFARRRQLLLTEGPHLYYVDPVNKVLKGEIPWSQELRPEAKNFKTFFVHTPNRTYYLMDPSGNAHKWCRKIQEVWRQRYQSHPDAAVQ

recombinant human PDK1 = target: T2, recombinant human PDK1 (Homo sapiens, UniProt O15530); experiment: PDK1 IMAP fluorescence polarization assay (inhibition of peptide substrate phosphorylation); format: biochemical
T2 construct: containing amino acids 51-556 of the human PDK1 enzyme; made in house; host or cells: Sf9 insect cells
T2 sequence (O15530 51-556): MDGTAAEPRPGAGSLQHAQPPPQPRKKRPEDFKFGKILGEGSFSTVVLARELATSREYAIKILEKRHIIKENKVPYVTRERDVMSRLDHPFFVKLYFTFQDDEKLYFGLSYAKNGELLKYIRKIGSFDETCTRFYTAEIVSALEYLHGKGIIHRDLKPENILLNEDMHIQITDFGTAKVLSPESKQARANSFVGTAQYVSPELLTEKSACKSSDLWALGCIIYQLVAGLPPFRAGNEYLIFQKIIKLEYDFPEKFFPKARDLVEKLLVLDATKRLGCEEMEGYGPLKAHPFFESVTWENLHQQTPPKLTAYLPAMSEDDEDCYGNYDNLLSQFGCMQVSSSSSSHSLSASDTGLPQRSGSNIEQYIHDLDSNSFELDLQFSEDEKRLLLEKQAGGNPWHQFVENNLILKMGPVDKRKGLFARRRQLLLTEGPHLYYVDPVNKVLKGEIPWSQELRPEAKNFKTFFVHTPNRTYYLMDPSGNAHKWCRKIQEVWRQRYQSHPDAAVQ

[1] = Table 6, 10 nM PDK1 enzyme, 100 nM peptide substrate, 100 nM PIFtide, 2.5 uM ATP, 1.5 hours

Molecule | IC50 (recombinant human PDK1; [1]) [nM] | other results
PIFtide: "The peptide sequence of PIFtide is RREPRILSEEEQEMFRDFDYIADWC (SEQ ID NO:2)"; "interacts with PDK-1 and is derived from PRK2 kinase" (PIFtide) | – | enhance PDK-1 phosphorylation of substrates (PDK-1): approximately 4 fold
CCc1cc(-c2c[nH]c(C(=O)Nc3cccc(F)c3N3CCC(CN)CC3)n2)ccn1 [Compound 30, N-[2-[4-(aminomethyl)-1-piperidinyl]-3-fluorophenyl]-4-(2-ethyl-4-pyridinyl)-1H-imidazole-2-carboxamide] | 1 to 50 | –
Nc1cc(-c2c[nH]c(C(=O)Nc3cccc(F)c3N3CCC[C@@H](N)C3)n2)ccn1 [Compound 20, N-[2-(−3(R)-amino-1-piperidinyl)-3-fluorophenyl]-4-(2-amino-4-pyridinyl)-1H-imidazole-2-carboxamide] | 1 to 50 | –
Cc1cc(-c2c[nH]c(C(=O)Nc3cccc(F)c3N3CCC(C(N)=O)CC3)n2)ccn1 [Compound 82, 1-[2-fluoro-6-[[[4-(2-methyl-4-pyridinyl)-1H-imidazol-2-yl]carbonyl]amino]phenyl]-4-piperidinecarboxamide] | 1000 to 5000 | –
CNc1nc(-c2c[nH]c(C(=O)Nc3cccc(F)c3N3CCC(CN)CC3)n2)cc(N2CC[C@@](OC)(C(N)=O)C2)n1 [Compound 128, (S)—N-(2-(4-(aminomethyl)piperidin-1-yl)-3-fluorophenyl)-4-(6-(3-carbamoyl-3-methoxypyrrolidin-1-yl)-2-(methylamino)pyrimidin-4-yl)-1H-imidazole-2-carboxamide] | – | IC50 (recombinant human PDK1; Table 10, compounds 97-132): 1 to 50 nM
NCC1CCN(c2c(F)cccc2NC(=O)c2nc(-c3ccnc(NC4CC4)c3)c[nH]2)CC1 [Compound 42, N-[2-[4-(aminomethyl)-1-piperidinyl]-3-fluorophenyl]-4-[2-(cyclopropylamino)-4-pyridinyl]-1H-imidazole-2-carboxamide] | 51 to 250 | –
CN(C)c1cc(-c2c[nH]c(C(=O)Nc3cccc(F)c3N3CCC(CN)CC3)n2)ccn1 [Compound 36, N-[2-[4-(aminomethyl)-1-piperidinyl]-3-fluorophenyl]-4-[2-(dimethylamino)-4-pyridinyl]-1H-imidazole-2-carboxamide] | 251 to 1000 | –
Cc1cc(-c2c[nH]c(C(=O)Nc3cccc(F)c3N3CCC(C)(CN)CC3)n2)ccn1 [Compound 55, N-[2-[4-(aminomethyl)-4-methyl-1-piperidinyl]-3-fluorophenyl]-4-(2-methyl-4-pyridinyl)-1H-imidazole-2-carboxamide] | 51 to 250 | –
